Data published in patent US12628820B2, “Systems and methods for preservation of cells” (UNIVERSITY OF LOUISVILLE RESEARCH FOUNDATION, Inc., priority 2017, dated 2026).

Columns and labels:
[1] = tested on: RBCs; experiment: Recovery of RBCs 24 hours after sonoporation (toxicity); assay type: cell-based, pig or human; details: 200 mM trehalose, microbubbles, 2.5-MHz ultrasound 70 seconds
Procedure: (§1) In vitro experiments have been performed to validate the methods and systems described herein. Briefly, a 0.5 mL solution containing pig or human RBCs, 200 mM trehalose, and microbubbles was placed in a conical tube and sonicated with a 2.5-MHz clinical ultrasound probe for 70 seconds (Philips 4-1 on a Verasonics Vantage 64LE ultrasound imaging system). […] Following sonication, samples were dried (FIG. 5A-B), frozen at −80° C., or freeze-dried for 1 week. Upon thawing or rehydration, the percentage of structurally intact RBCs was counted (FIG. 6A-B). Cell recovery rates of up to 85% were achieved after freezing/thawing, compared to less than 40% without sonoporation. Cell recovery rates of up to 12% were achieved after freeze-drying/rehydration, compared to 0% without sonoporation. Although the recovery is still low, this was believed to be a significant result given that not a single RBC was recovered from freeze-dried samples that had not been treated with sonoporation. […] The microfluidic sonoporation device can further improve the recovery rates by enabling consistent and precise trehalose delivery to each cell. This device is also effective in processing RBCs for long-term preservation in a frozen or freeze-dried state.

[2] = tested on: red blood cells; experiment: Microscopy of dried red blood cells after rehydration; assay type: cell-based; details: after loading with trehalose; confocal image
Procedure: FIG. 5A-B includes microscopic images of dried red blood cells without trehalose (A) and after loading with trehalose (B).
as §1

[3] = tested on: RBCs; experiment: Recovery of RBCs following freezing/thawing; assay type: cell-based, pig or human; details: for cell recovery rate (structurally intact RBCs) after freezing/thawing: frozen at -80° C.
Procedure: as §1

[4] = tested on: RBCs; experiment: Recovery of RBCs following freeze-drying/rehydration; assay type: cell-based, pig or human
Procedure: as §1

What does the source list for `OC[C@H]1O[C@H](O[C@H]2O[C@H](CO)[C@@H](O)[C@H](O)[C@H]2O)[C@H](O)[C@@H](O)[C@@H]1O` [trehalose]?
cell recovery 24 hours after sonication [1]: > 95%; shape of dried blood cells after rehydration [2]: maintain shape after rehydration; cell recovery rate (structurally intact RBCs) after freezing/thawing ([3]; 200 mM trehalose with sonoporation): up to 85%; recovery rate for frozen cells ([3]; after small changes to the cell media composition, frozen cells): above 85%; cell recovery rate (structurally intact RBCs) after freezing/thawing ([3]; without sonoporation): less than 40%; cell recovery rate (structurally intact RBCs) after freeze-drying/rehydration ([4]; 200 mM trehalose with sonoporation, freeze-dried for 1 week): up to 12%; recovery rate after freeze-drying, improved technique ([4]; after small changes to the cell media composition and freeze-drying parameters): above 12%; recovery after freeze-drying, initial experiments ([4]; initial experiments (data not shown)): less than 8%; cell recovery rate (structurally intact RBCs) after freeze-drying/rehydration ([4]; without sonoporation, freeze-dried): 0%
